This note sets out measurements from PubChem BioAssay AID843 (The Scripps Research Institute Molecular Screening Center, 2007).

Structures are written as SMILES. Active and inactive are the calls of the source. No rule for the calls is given here.

One may read the EC50 as the concentration that produces a half-maximal response.

The subject of the experiment is CRE-bla reporter cells, beta-lactamase FRET, activation. Nature of the experiment: CRE beta-lactamase reporter activation – cell-based, beta-lactamase FRET, counter-screen for S1P2 agonist project, dose response (AID 843). On the technique in general: Counterscreens check selectivity or assay interference.

For `c1ccc(-c2nc3ccccn3c2NCc2ccc3c(c2)OCO3)cc1`, the EC50 was > 50 µM (inactive).

Turning to `CCOC(=O)c1cc2ccc(OC)c(OC)c2c(=O)s1`, the EC50 is > 50 µM (inactive).

Consider `CS(=O)(=O)NCc1nnc(SCC(=O)NC2CCCCC2)n1-c1ccc(F)cc1`, for which the EC50 was > 50 µM (inactive).

Regarding `O=C(Cc1c[nH]c2ccccc12)Nc1nc2ccccc2[nH]1`, the EC50 was > 50 µM (inactive).

Consider `O=C(NCC1(c2ccccc2)CCCC1)C(=O)N1CCOCC1`, for which the EC50 is > 50 µM (inactive).

On to `CCOC(=O)c1cc2ccc(OC(=O)c3ccco3)cc2oc1=O`, for which the concentration for a half-maximal effect (EC50) was 8.74 µM.

Turning to `Cc1cccn2c(=O)c3cc(C(=O)NCCc4ccccc4)c(=N)n(CCCn4ccnc4)c3nc12`, the EC50 is 10.2 µM (inactive).

For the molecule `O=C1SC(c2ccccc2)=N/C1=C/c1ccco1`, the EC50 is > 50 µM (inactive).

For the molecule `CC(C)CNC(=O)c1c(N)n(Cc2ccc3c(c2)OCO3)c2nc3ccccc3nc12`, the 50% effective concentration (EC50) was 5.66 µM.

Take `CCCc1nn(-c2cc(Cl)ccc2OC)c2c1C(=O)CCC2`: the EC50 was > 50 µM (inactive).

For `Cc1cccc(C(=O)NC2CC3CCCC(C2)N3C(=O)NC2CCCCC2)c1` (configuration not stated), the EC50 was > 50 µM (inactive).

Turning to `N#CCN1CCN(CC(=O)Nc2cccc3ccccc23)CC1`, the EC50 was > 50 µM (inactive).

In the case of `O=C(NCc1ccco1)c1cc2ccc(O)cc2oc1=O`, the EC50 was 12.7 µM (inactive).

With `Clc1ccc(N2N=C(c3cccs3)CC2c2ccco2)cc1` (configuration not stated), the EC50 was 3.35 µM.

Regarding `CC(C)n1c(=N)c(C(=O)NCCc2ccccc2)cc2c(=O)n3ccccc3nc21`, the EC50 is 23.6 µM (inactive).

As for `CCC(C)n1c(NC(=O)c2ccccc2)c(C#N)c2nc3ccccc3nc21` (configuration not stated), the EC50 is 2.95 µM.

For `O=c1c(-c2nc3ccccc3s2)cccn1Cc1ccccc1`, the EC50 is 6.82 µM.

Regarding `O=C(CCC(=O)N1CCc2ccccc21)Nc1ccccc1`, the EC50 was > 50 µM (inactive).

For the molecule `Cc1cc(C)n2cc(CSc3nnnn3-c3ccc(Cl)cc3)nc2n1`, the EC50 was > 50 µM (inactive).

For `CCN(CC)c1ccc(NC(=O)Nc2ccccc2C(F)(F)F)cc1`, the EC50 is > 50 µM (inactive).

Turning to `Cc1cc(C(=O)CN2C(=O)CCC2=O)c(C)n1Cc1ccccc1`, the EC50 is > 50 µM (inactive).

With `Clc1ccc(-c2ccc(/C=N/Nc3cc(N4CCOCC4)nc(N4CCOCC4)n3)o2)cc1`, the EC50 is 14.5 µM (inactive).

Regarding `CCC(C)NC(=O)c1c(N)n(Cc2ccc3c(c2)OCO3)c2nc3ccccc3nc12` (configuration not stated), the EC50 was 5.7 µM.

As for `Cc1ccc(Cn2cccc(-c3nc4ccccc4s3)c2=O)cc1`, the EC50 was 24 µM (inactive).

For the molecule `Cc1ccc(CNC(=O)CCNC(=O)c2ccco2)cc1`, the EC50 was > 50 µM (inactive).

As for `C=CCn1c(N)cc(=O)nc1SCC(=O)Nc1ccccc1`, the EC50 is > 50 µM (inactive).

As for `O=c1c(-c2nc3ccccc3s2)cccn1Cc1ccc(Cl)cc1`, the EC50 is 3.43 µM.

For the molecule `Cc1cc(Br)ccc1OCCCCNCCO`, the EC50 was > 50 µM (inactive).

Take `CCOc1cccc(OCCCCn2ccnc2)c1`: the EC50 was > 50 µM (inactive).

As to `Cc1ccc(C2CC(=O)c3cnc(N4CCc5ccccc5C4)nc3C2)cc1` (configuration not stated), the EC50 is > 50 µM (inactive).

For `Oc1cccc(C(=S)N2CCN(Cc3ccccc3)CC2)c1`, the EC50 was > 50 µM (inactive).

For the molecule `C(=C\c1ccccc1)/CSc1nnc(-c2ccccc2)n1Cc1ccco1`, the EC50 was > 50 µM (inactive).

For the molecule `COC(=O)c1cn[nH]c1NC(=S)Nc1ccccc1C`, the EC50 was > 50 µM (inactive).

Consider `c1ccc(OCCSc2nnnn2-c2ccccc2)cc1`, for which the EC50 was > 50 µM (inactive).

`CCOC(=O)CN(C(=O)CSc1nnc(COc2ccc(OC)cc2)n1C)c1ccccc1`: the EC50 was > 50 µM (inactive).

Turning to `CCC(=O)c1cc2c(C)cc(=O)oc2c(C)c1O`, the EC50 is > 50 µM (inactive).

For the molecule `CCOCCCNc1nc(=S)[nH]c2cc(OC)c(OC)cc12`, the EC50 is > 50 µM (inactive).

Regarding `COc1ccc(C(c2c[nH]c3ccccc23)c2c[nH]c3ccccc23)cc1O`, the EC50 was > 50 µM (inactive).

In the case of `CC(C)CCNC(=O)c1c(N)n(Cc2ccc3c(c2)OCO3)c2nc3ccccc3nc12`, the EC50 was 6.45 µM.

As for `COCCNC(=O)CN1CCN(C(c2ccccc2)c2ccccc2)CC1`, the EC50 is > 50 µM (inactive).

On to `Clc1ccc2nc(N3CCNCC3)nc(-c3ccccc3)c2c1`, for which the EC50 was 9.98 µM.

With `CN(C)CCCNS(=O)(=O)c1ccc(N2CCC(c3ccc(Cl)cc3)=N2)cc1`, the EC50 is 1.03 µM.

Consider `Cc1cc(C)c(S(=O)(=O)Nc2ccc(O)cc2)cc1C`, for which the EC50 was > 50 µM (inactive).

Regarding `O=S(=O)(Cc1ccc(Cl)cc1)NCC1CCCO1` (configuration not stated), the EC50 is > 50 µM (inactive).

Turning to `COc1cc2c(cc1OC)C1=C(C#N)CCC(=O)N1CC2`, the EC50 was 2.96 µM.

Turning to `NS(=O)(=O)c1ccc(N2N=C(c3ccc(Br)cc3)CC2c2ccc(F)cc2)cc1` (configuration not stated), the EC50 was 2.69 µM.

Take `O=c1c(-c2nc3ccccc3s2)cccn1Cc1ccc(Cl)c(Cl)c1`: the EC50 is 3.29 µM.

On to `Nc1c(C(=O)NCCCc2ccccc2)c2nc3ccccc3nc2n1Cc1cccs1`, for which the EC50 was 5.9 µM.

Regarding `COc1ccc2cc(S(=O)(=O)NCCCN3CCOCC3)ccc2c1`, the EC50 was > 50 µM (inactive).

Take `Cc1cc(-c2nnc(SCC(=O)NC3CCCC3)o2)no1`: the EC50 was > 50 µM (inactive).

With `COc1cccc(CNC(=O)CN(c2cc(C)cc(C)c2)S(=O)(=O)c2c(C)noc2C)c1`, the EC50 was > 50 µM (inactive).

With `NC(=O)c1ccc(NC(=O)C2CCCO2)cc1` (configuration not stated), the EC50 was > 50 µM (inactive).

With `Cc1cccc2cc(C(c3nnnn3CC3CCCO3)N3CCc4ccccc4C3)c(=O)[nH]c12` (configuration not stated), the EC50 was > 50 µM (inactive).

For `CCOC(=O)c1c(C)n(C)c2ccc(OCC(O)Cn3nc(C)cc3C)cc12` (configuration not stated), the EC50 was > 50 µM (inactive).

As for `Cc1ccccc1-n1c(=O)c(C#N)cc2c(=O)n3ccccc3nc21`, the EC50 is 26.3 µM (inactive).

`O=c1[nH]c(-c2cccs2)nc2ccccc12`: the EC50 is > 50 µM (inactive).

With `COc1ccccc1CNC(=O)c1c(N)n(CCCN2CCOCC2)c2nc3ccccc3nc12`, the EC50 was 22.9 µM (inactive).

As to `O=C(Nc1ccccn1)Nc1cccs1`, the EC50 was > 50 µM (inactive).

Turning to `O=C1CCCC(O)=C1C=NCCc1ccccc1`, the EC50 was > 50 µM (inactive).

As to `COc1ccc(Cn2c(-c3ccco3)nc3oc4cc(OC)ccc4c(=O)c3c2=O)cc1`, the EC50 was > 50 µM (inactive).

On to `COc1cc2c(cc1OC)C1=C(C#N)CCC(=NC(=O)c3ccc(Cl)cc3)N1CC2`, for which the EC50 is 1.64 µM.

For `O=S(=O)(c1ccc(N2CCC(c3ccc(Cl)cc3)=N2)cc1)N(CCO)CCO`, the EC50 is 9.11 µM.
